In PMC9832397 (Nature chemistry, 2022) one finds Km, turnover rate and stoichiometry N data, which are given here for five compounds.

Test [1] has as its target T1, MAT (malonyl-/acetyl transferase domain of murine FAS) (Mus musculus, UniProt P19096).
T1 sequence (P19096 488-816 limits assumed): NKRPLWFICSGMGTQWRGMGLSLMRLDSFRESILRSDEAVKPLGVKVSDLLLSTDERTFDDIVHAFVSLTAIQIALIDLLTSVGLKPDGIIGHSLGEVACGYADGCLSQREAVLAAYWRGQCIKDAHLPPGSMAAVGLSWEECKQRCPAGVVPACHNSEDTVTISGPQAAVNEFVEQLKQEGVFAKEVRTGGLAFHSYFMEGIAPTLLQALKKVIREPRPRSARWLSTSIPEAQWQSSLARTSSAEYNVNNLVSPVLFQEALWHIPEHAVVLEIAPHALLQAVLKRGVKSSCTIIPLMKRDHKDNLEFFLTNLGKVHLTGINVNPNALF
The test is described as follows: enzyme-coupled fluorometric transacylation assay. The class given is biochemical. Conditions: individual domains; acceptor DEBS ACP6 presumed.

A further test has as its target DEBS M6+TE (WT) (Saccharopolyspora erythraea, UniProt Q03133). The test is described as follows: NADPH consumption assay. Conditions: 400 mM phosphate pH 7.2, 25 °C. The class given is biochemical.
Test [2] has as its target DEBS module 6 including its C-terminal TE domain (DEBS M6+TE), wildtype (Saccharopolyspora erythraea). The test is described as follows: SEC. On the technique in general: In gel filtration, larger molecules generally elute earlier.

Sequence of DEBS M6+TE (WT) (Q03133 1470-3172 limits assumed): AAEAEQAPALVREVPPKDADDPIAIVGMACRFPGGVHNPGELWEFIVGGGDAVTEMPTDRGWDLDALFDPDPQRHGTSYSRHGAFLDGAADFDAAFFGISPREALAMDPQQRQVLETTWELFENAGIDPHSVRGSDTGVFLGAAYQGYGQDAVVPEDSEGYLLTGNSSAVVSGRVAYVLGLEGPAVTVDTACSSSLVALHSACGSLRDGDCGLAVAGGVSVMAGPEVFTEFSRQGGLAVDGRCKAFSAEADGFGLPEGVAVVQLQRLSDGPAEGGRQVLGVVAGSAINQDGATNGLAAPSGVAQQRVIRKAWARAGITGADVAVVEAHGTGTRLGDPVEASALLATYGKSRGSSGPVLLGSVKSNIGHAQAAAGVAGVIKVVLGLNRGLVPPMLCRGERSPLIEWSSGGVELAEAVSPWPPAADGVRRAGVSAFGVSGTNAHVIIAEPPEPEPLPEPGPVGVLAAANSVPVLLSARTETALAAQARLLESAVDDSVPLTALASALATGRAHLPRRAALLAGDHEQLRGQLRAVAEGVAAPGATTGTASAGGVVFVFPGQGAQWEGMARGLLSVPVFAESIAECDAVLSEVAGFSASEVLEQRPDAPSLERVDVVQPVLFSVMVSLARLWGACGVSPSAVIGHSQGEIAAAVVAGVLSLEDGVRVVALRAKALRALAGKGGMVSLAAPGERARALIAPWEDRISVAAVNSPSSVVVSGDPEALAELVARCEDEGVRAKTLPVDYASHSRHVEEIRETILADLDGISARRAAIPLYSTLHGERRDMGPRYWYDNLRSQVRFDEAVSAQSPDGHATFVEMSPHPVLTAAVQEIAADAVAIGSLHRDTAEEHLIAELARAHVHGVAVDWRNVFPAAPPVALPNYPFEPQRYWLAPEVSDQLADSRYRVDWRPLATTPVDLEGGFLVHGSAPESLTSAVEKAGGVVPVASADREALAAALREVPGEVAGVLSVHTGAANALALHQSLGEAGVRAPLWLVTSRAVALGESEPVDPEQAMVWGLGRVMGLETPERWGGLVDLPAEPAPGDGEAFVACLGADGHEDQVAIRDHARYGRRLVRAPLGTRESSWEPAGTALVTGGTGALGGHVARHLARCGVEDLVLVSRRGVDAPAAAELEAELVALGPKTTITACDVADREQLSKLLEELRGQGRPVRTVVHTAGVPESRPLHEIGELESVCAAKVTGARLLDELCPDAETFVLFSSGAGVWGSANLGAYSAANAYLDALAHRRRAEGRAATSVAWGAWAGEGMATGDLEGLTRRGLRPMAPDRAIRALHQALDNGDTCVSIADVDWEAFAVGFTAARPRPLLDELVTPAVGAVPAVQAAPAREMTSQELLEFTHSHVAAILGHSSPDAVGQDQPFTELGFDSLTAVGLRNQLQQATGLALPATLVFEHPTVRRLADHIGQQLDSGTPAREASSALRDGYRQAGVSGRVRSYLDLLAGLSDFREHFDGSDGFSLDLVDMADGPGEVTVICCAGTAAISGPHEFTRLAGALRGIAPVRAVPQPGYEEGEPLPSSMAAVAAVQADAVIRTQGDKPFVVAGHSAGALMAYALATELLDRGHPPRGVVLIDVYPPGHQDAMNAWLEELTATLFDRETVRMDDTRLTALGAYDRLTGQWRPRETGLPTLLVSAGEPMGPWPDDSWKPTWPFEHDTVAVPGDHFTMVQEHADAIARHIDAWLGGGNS
Sequence of DEBS module 6 including its C-terminal TE domain (DEBS M6+TE), wildtype (domain or fragment) (Q03133 2-3172): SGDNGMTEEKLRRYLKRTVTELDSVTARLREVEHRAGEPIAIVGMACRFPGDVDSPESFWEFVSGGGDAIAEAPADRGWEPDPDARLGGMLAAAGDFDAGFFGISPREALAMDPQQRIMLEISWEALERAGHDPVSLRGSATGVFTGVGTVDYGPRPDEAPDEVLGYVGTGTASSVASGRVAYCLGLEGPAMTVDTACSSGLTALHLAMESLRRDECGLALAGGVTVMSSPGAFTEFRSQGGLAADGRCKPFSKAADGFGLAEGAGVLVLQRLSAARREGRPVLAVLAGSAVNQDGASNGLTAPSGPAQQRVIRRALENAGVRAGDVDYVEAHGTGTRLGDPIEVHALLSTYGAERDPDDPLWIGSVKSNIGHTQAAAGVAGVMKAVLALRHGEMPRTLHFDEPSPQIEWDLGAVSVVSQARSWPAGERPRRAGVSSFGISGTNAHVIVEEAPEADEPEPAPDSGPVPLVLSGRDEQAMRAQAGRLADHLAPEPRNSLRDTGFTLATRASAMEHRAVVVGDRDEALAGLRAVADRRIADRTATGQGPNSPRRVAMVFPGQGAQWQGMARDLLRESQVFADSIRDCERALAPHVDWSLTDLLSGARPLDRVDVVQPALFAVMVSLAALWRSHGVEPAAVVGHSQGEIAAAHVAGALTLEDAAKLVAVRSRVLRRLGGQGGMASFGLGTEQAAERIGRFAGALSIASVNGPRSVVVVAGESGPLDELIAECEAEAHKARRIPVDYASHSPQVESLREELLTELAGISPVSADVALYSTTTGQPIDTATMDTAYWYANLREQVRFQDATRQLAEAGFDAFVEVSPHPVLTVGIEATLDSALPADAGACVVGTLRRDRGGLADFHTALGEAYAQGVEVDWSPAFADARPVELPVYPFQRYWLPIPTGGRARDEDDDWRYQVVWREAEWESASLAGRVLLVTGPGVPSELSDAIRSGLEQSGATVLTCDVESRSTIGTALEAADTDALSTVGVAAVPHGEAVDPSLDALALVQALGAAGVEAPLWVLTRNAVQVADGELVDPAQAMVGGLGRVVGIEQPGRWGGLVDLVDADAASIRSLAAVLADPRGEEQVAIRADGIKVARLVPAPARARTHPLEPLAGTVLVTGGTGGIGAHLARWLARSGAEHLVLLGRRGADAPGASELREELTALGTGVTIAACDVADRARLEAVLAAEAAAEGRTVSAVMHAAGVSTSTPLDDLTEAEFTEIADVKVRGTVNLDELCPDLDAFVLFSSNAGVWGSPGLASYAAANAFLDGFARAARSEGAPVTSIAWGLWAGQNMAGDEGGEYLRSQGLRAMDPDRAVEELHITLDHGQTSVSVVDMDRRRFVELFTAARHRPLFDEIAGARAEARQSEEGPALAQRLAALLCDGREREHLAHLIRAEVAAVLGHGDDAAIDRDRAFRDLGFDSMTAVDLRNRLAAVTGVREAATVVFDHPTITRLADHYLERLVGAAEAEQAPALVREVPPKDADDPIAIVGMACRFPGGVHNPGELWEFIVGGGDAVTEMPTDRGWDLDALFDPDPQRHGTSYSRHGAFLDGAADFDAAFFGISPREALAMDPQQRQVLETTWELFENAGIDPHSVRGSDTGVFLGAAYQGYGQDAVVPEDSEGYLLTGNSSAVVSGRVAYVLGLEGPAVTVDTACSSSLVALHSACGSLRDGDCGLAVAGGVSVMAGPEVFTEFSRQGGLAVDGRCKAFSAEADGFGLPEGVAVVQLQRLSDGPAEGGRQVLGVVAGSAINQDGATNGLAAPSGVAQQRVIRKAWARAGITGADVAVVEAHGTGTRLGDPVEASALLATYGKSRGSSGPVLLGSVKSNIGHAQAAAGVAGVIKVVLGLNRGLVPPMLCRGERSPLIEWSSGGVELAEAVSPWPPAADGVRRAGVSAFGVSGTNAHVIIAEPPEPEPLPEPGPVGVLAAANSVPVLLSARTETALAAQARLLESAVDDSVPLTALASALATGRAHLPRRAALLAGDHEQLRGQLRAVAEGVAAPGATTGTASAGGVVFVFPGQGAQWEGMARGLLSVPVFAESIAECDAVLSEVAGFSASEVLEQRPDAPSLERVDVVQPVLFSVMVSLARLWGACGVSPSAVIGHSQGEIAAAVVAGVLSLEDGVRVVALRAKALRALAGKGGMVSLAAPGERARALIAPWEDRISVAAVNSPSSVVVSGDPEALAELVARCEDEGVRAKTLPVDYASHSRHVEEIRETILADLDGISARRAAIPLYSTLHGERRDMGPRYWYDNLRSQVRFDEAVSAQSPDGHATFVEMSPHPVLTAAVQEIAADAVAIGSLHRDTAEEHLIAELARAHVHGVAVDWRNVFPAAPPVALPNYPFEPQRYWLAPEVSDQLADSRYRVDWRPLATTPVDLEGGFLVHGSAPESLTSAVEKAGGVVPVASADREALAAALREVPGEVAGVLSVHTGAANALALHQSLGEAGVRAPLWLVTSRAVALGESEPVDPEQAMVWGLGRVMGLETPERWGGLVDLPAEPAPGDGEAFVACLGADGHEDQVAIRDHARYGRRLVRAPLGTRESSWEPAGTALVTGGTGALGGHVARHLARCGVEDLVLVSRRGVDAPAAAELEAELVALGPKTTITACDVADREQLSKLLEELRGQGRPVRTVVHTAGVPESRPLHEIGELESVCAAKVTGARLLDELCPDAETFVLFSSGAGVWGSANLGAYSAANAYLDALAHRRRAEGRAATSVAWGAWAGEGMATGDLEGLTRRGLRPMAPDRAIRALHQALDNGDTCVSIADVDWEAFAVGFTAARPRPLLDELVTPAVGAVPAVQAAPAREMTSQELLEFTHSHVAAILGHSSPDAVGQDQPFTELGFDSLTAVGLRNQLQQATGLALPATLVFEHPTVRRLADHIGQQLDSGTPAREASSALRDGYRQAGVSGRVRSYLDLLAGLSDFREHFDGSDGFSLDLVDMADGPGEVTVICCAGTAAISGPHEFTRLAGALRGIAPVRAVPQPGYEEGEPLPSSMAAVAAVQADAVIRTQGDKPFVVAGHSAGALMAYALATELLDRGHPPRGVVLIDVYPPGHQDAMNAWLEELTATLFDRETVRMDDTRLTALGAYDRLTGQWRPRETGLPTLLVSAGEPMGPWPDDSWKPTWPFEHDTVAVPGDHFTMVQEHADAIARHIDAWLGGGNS

Take `CC(C)(COP(=O)(O)OP(=O)(O)OC[C@H]1O[C@@H](n2cnc3c(N)ncnc32)[C@H](O)[C@@H]1OP(=O)(O)O)[C@@H](O)C(=O)NCCC(=O)NCCSC(=O)C(F)C(=O)O` (mixture of isomers) [compound 1, F-Mal-CoA]: the Km entry in test [1] was “we observed excellent transfer kinetics of MAT for F-Mal-CoA”.

For the compound `CC(F)(C(=O)O)C(=O)SCCNC(=O)CCNC(=O)[C@H](O)C(C)(C)COP(=O)(O)OP(=O)(O)OC[C@H]1O[C@@H](n2cnc3c(N)ncnc32)[C@H](O)[C@@H]1OP(=O)(O)O` (mixture of isomers) [compound 17, F-MM-CoA], in test [1], the Km entry is reported as “the MAT showed excellent transfer kinetics for F-MM-CoA”. For the compound `CC(C(=O)O)C(=O)SCCNC(=O)CCNC(=O)[C@H](O)C(C)(C)COP(=O)(O)OP(=O)(O)OC[C@H]1O[C@@H](n2cnc3c(N)ncnc32)[C@H](O)[C@@H]1OP(=O)(O)O` (some centres unmarked) [MM-CoA], the turnover rate entry at DEBS M6+TE (WT) (diketide 2, NADPH) is “Turnover rates for the WT-, H1- and H2-mediated formation of TKLs”. On to `CC[C@@H](O)[C@H](C)C(=O)SCCNC(C)=O` [compound 2, (2S,3R)-2-methyl-3-hydroxypentanoyl-N-acetylcysteamine thioester], for which the turnover rate result at DEBS M6+TE (WT) (MM-CoA, NADPH) is “Turnover rates for the WT-, H1- and H2-mediated formation of TKLs”. The term stoichiometry N denotes the number of molecules, sites or subunits per partner or assembly. Consider “DEBS module 6 including its C-terminal TE domain (DEBS M6+TE), wildtype (domain or fragment)”, for which, in test [2], the stoichiometry N was determined as 2.
